{
  "source": "patent US20120015364A1",
  "about": "“METHOD FOR THE SELECTION OF ENDOTHELIAL CELLS DEATH INDUCERS VIA NETRIN-1 AND ITS APPLICATIONS” (CENTRE NATIONAL DE LA RECHERCHE SCIENTIFIQUE (CNRS), priority 2009, published 2012)",
  "key": {"murine aortic rings": {"system": "murine aortic rings", "assay": "Aortic ring matrigel assay (ex vivo)", "format": "cell-based, mouse", "details": "netrin-1 150 ng/ml, z-VAD-fmk 20 nM, BAF 20 nM, VEGF 13 ng/ml; day 4", "protocol": "Aortic ring assays were performed as described by Nicosia and colleagues (Nicosia and Ottinetti, 1990). Aortas were resected from Balb/C mice of 6 to 8 weeks of age, cleaned of periadventitial fat and connective tissues, rinsed twice in ECGM and cut in rings of 1 to 1.5 mm length. One hundred microliters of Growth factor reduced Matrigel (BD Biosciences) was added to each well of a 48-well tissue culture plate (Costar) and allowed to solidify for 30 min. at 37° C. Aortic rings were placed on the matrix layer, embedded in 100 μl of Matrigel, and allowed to recover in complete growth medium (ECGM, Promocell) for 24 hours. They were then treated or not with netrin-1 (150 ng/ml), z-VAD-fmk (Tebu; 20 nM), BAF (Sigma; 20 nM) or VEGF (Sigma; 13 ng/ml) and photographed with a phase contrast microscope on day 4. Microvessels outgrowth total length was calculated using AxioVision Release 4.6 software."}, "[1]": {"system": "chick chorioallantoic membrane", "assay": "Chick chorioallantoic membrane (CAM) assay", "format": "in vivo", "details": "8-day-old chick embryos, 3 days; netrin-1 150 ng/ml, z-VAD-fmk 20 nM, BAF 20 nM; p<0.02", "protocol": "Chick chorioallantoic membrane assay (CAM) assay was performed as already described. White Leghorn eggs were incubated at 37° C. in a humidified atmosphere. After 72 hours of incubation, 3 ml albumen was removed and a square window was opened into the shell. The opening was closed with cellotape until day 8. Netrin-1 (150 ng/ml), z-VAD-fmk (Tebu; 20 nM), BAF (Sigma; 20 nM), or VEGF (Sigma) were then diluted in PBS and mixed with an equal volume of autoclaved 1% methylcellulose solution. Controls were prepared with vehicles only. Each sample solution (10 μl) was dropped on Parafilm and dried up. The methylcellulose disks were stripped off from the Parafilm and placed on a CAM of the 8-day-old chick embryos. After 3 days, CAMs were photographed and the angiogenic response was evaluated by measuring the number of secondary ectopic vessels sprouts under the methylcellulose disks using AxioVision Release 4.6 software. UNC5B silencing in CAM was achieved by injection of specific siRNA designed by Sigma-Proligo in CAM blood circulation at E.5, E.7 and E.9. Analysis was performed at E.11."}, "[2]": {"system": "fli:egfp zebrafish embryos", "assay": "Morpholino knockdown of fli:egfp zebrafish embryos, trunk vasculature phenotype", "format": "in vivo", "protocol": "Resource Center (University of Oregon) and maintained under standard breeding conditions at 28° C. (Lawson and Weinstein, 2002). Embryos were dechorionated using pronase enzymatic treatment and 6 ng of splice/translation blocking netrin-1, UNC5B and control morpholinos that were previously designed and characterized were injected alone or in combination in the high yolk of one to four-cells-stage embryos. A third splice-blocking morpholino specifically targeting netrin-1a was designed (GeneTools) and injected in embryos at the same dose. Finally, 3 ng of a translation-blocking morpholino targeting zebrafish ortholog of DAP kinase (GeneTools) was injected, leading to 35% decrease of DAP kinase mRNA expression in knocked-down embryos compared to control. Sequences of morpholinos are available upon request. Embryos were raised in E3 medium supplemented with 0.003% phenylthiourea to inhibit pigment formation. Rescue of phenotype induced by netrin-1a silencing was tested by adding 40 nM BAF in the E3 medium 4 hours after morpholinos injection. For TUNEL staining, embryos were fixed at 48 hpf in 4% PFA overnight at 4° C. They were then rinsed 10 minutes in PBS-Tween 0.1% (PBST) and progressively dehydrated in successive methanol baths (25, 50, 75 and 100%). […]"}, "zebrafish embryos": {"system": "zebrafish embryos", "assay": "Apoptosis in zebrafish embryos (TUNEL staining, caspase-3 activity)", "format": "in vivo", "details": "TUNEL immunostaining and caspase-3 activity; tsl-netrin-1a injected embryos", "quoted_text": "Embryos were dechorionated using pronase enzymatic treatment and 6 ng of splice/translation blocking netrin-1, UNC5B and control morpholinos that were previously designed and characterized were injected alone or in combination in the high yolk of one to four-cells-stage embryos. A third splice-blocking morpholino specifically targeting netrin-1a was designed (GeneTools) and injected in embryos at the same dose. […] Embryos were raised in E3 medium supplemented with 0.003% phenylthiourea to inhibit pigment formation. Rescue of phenotype induced by netrin-1a silencing was tested by adding 40 nM BAF in the E3 medium 4 hours after morpholinos injection. For TUNEL staining, embryos were fixed at 48 hpf in 4% PFA overnight at 4° C. They were then rinsed 10 minutes in PBS-Tween 0.1% (PBST) and progressively dehydrated in successive methanol baths (25, 50, 75 and 100%). […] Caspase-3 activity assay was performed as described above on whole embryos at 24 h development."}, "HUVEC [3]": {"system": "HUVEC", "assay": "Cell death upon serum starvation, trypan blue exclusion", "format": "cell-based, human", "details": "netrin 50 ng/ml, p<0.005", "protocol": "(§1) Cell death assays were performed as described previously. Briefly, endothelial cells were seeded at 10 000 cells/cm2 in complete medium for 16 hours. Cell death was induced either by starvation in serum free medium (Endothelium Cell Basal Medium, Promocell) or by exposure to 50 μM etoposide. Netrin-1 was purchased from Axxora-Apotech. Cell death was scored by trypan blue exclusion assay as previously described. For detection of DNA fragmentation, treated cells cultured on coverslips were fixed 20 minutes in 4% paraformaldehyde (PFA) and Terminal deoxynucleodityl transferase mediated dUTP-biotin Nick End Labeling (TUNEL) was performed with 300 U/mL TUNEL enzyme (300 U/mL) and 6 μM biotinylated dUTP (Roche Diagnostics). Caspase-3 activity was measured using ApoAlert CPP32 kit from Clontech (USA) and by immunostaining on fixed cells using anti-active-caspase-3 antibody (Cell Signaling) as described in (Llambi et al., 2005; Tauszig-Delamasure et al., 2007). Toxilight assay was performed according to manufacturer's instructions (Lonza). For netrin-1 titration experiment, rat recombinant UNC5H2-Fc (R&D) was used at 1 μg/ml."}, "HUAEC [4]": {"system": "HUAEC", "assay": "Cell death upon serum starvation, trypan blue exclusion", "format": "cell-based, human", "details": "netrin 50 ng/ml, p<0.005", "protocol": "as §1"}, "HUVEC [5]": {"system": "HUVEC", "assay": "Etoposide-induced cell death, Toxilight assay", "format": "cell-based, human", "details": "overnight treatment with 50 μM etoposide; p<0.05", "protocol": "as §1"}, "HUAEC [6]": {"system": "HUAEC", "assay": "Etoposide-induced cell death, Toxilight assay", "format": "cell-based, human", "details": "overnight treatment with 50 μM etoposide; p<0.05", "protocol": "as §1"}, "HUVEC [7]": {"system": "HUVEC", "assay": "TUNEL staining of apoptosis", "format": "cell-based, human", "details": "netrin 50 ng/ml", "protocol": "as §1"}, "HUVEC [8]": {"system": "HUVEC", "assay": "Caspase-3 activity assay (ApoAlert CPP32 kit, active caspase-3 immunostaining)", "format": "cell-based, human", "details": "netrin 50 ng/ml, p<0.005", "protocol": "Human umbilical vein and artery cells (Promocell, passages<8) were cultured in endothelial cell growth medium (ECGM, Promocell) supplemented with 2% serum (kit, Promocell) until they reach 80% confluence. HUVEC were transfected using the AMAXA Nucleofector system, according to manufacturer's instructions. In brief, 500 000 cells were resuspended in 100 μl HUVEC Nucleofector solution and transfected with 1 μg siRNA or 1.5 μg plasmid DNA and 0.5 μg GFP-encoding control plasmid. UNC5A, UNC5B and scramble siRNAs were designed by Sigma-Proligo. Plasmids encoding mutant DAP kinase (DAP kinase ΔCam and DAP kinase DD) were described previously (Llambi et al., 2005). After transfection, cells were cultured in 1% growth medium and collected after 24 hours.\nCell death assays were performed as described previously. Briefly, endothelial cells were seeded at 10 000 cells/cm2 in complete medium for 16 hours. Cell death was induced either by starvation in serum free medium (Endothelium Cell Basal Medium, Promocell) or by exposure to 50 μM etoposide. Netrin-1 was purchased from Axxora-Apotech. Cell death was scored by trypan blue exclusion assay as previously described. […] Caspase-3 activity was measured using ApoAlert CPP32 kit from Clontech (USA) and by immunostaining on fixed cells using anti-active-caspase-3 antibody (Cell Signaling) as described in (Llambi et al., 2005; Tauszig-Delamasure et al., 2007). […]"}, "HUAEC [9]": {"system": "HUAEC", "assay": "Caspase-3 activity assay (ApoAlert CPP32 kit, active caspase-3 immunostaining)", "format": "cell-based, human", "details": "netrin 50 ng/ml, p<0.005", "protocol": "as §1"}, "DAP kinase": {"system": "DAP kinase", "assay": "DAP kinase phosphorylation, Western blot", "format": "cell-based, human", "details": "HUVEC; netrin-1 in serum free medium 24 hours", "protocol": "Endothelial cells seeded at 10 000 cells/cm^2 and treated or not with netrin-1 in serum free medium (Endothelium Cell Basal Medium, Promocell) for 24 hours were collected and lysed in 50 mM HEPES pH 7.6, 125 mM NaCl, 5 mM EDTA and 0.1% NP-40 buffer in the presence of protease inhibitors. Protein extracts were immunoblotted with anti-DAP-kinase and anti-phospho-DAP kinase antibodies (Sigma). For immunofluorescence analysis, cells were seeded on LabTek chamber slides and fixed 15 minutes in 4% PFA."}},
  "note": "Peptide text beside a SMILES is read from it. * marks the point of attachment. Cbz = O=C(OCc1ccccc1)*; CH2F = FC*",
  "data": [
    {"compound": "COC(=O)C[C@H](NC(=O)OC(C)(C)C)C(=O)CF", "note": "[BAF]", "values": [
      {"measurement": "capillary sprouting / microvessels formation from aortic rings", "setting": "murine aortic rings", "value": "induced neocapillary tube formation"},
      {"measurement": "neovessel formation in vicinity of methylcellulose discs", "setting": "[1]", "value": "significant increase in neovessel formation"},
      {"measurement": "embryos with PAV formation", "setting": "[2]; spl-netrin-1a injected embryos treated with 40 nM BAF, n=54, 42.7% in untreated, p<0.0001", "value": 92.6, "unit": "%"},
      {"measurement": "embryos displaying at least partial ISVs", "setting": "[2]; tsl-netrin-1a knock-down embryos treated with BAF, 23.0% in controls, p<0.001", "value": 54.5, "unit": "%"},
      {"measurement": "increase of cell death after netrin-1a silencing", "setting": "zebrafish embryos", "value": "rescued the increase of cell death"}
    ]},
    {"compound": "COC(=O)C[C@H](NC(=O)[C@H](C)NC(=O)[C@@H](NC(=O)OCc1ccccc1)C(C)C)C(=O)CF", "note": "[z-VAD-fmk, reference compound] (Cbz-Val-Ala-Asp(OMe)-CH2F)", "values": [
      {"measurement": "capillary sprouting / microvessels formation from aortic rings", "setting": "murine aortic rings", "value": "induced neocapillary tube formation"},
      {"measurement": "neovessel formation in vicinity of methylcellulose discs", "setting": "[1]", "value": "significant increase in neovessel formation"}
    ]},
    {"compound": "VEGF", "values": [
      {"measurement": "capillary sprouting / microvessels formation from aortic rings", "setting": "murine aortic rings", "value": "enhanced capillary sprouting"},
      {"measurement": "neovessel formation in vicinity of methylcellulose discs", "setting": "[1]", "value": "significant increase in neovessel formation"}
    ]},
    {"compound": "netrin-1", "values": [
      {"measurement": "capillary sprouting / microvessels formation from aortic rings", "setting": "murine aortic rings", "value": "enhanced capillary sprouting"},
      {"measurement": "HUVEC cell death", "setting": "HUVEC [3]", "value": "inhibited"},
      {"measurement": "HUAEC cell death", "setting": "HUAEC [4]", "value": "inhibited"},
      {"measurement": "HUVEC cell death upon etoposide", "setting": "HUVEC [5]", "value": "inhibits"},
      {"measurement": "HUAEC cell death upon etoposide", "setting": "HUAEC [6]", "value": "inhibits"},
      {"measurement": "neovessel formation in vicinity of methylcellulose discs", "setting": "[1]", "value": "significant increase in neovessel formation"},
      {"measurement": "number of TUNEL positive cells", "setting": "HUVEC [7]", "value": "decreased number of TUNEL positive cells"},
      {"measurement": "reduced caspase-3 activity", "setting": "HUVEC [8]", "value": "up to 30%"},
      {"measurement": "reduced caspase-3 activity", "setting": "HUAEC [9]", "value": "≤ 40", "unit": "%"},
      {"measurement": "DAP kinase phosphorylation", "setting": "DAP kinase", "value": "increase in DAP kinase phosphorylation"}
    ]}
  ]
}
